{"source": "paper PMC6950057", "about": "“Toxicity, Pharmacokinetics, and Gut Microbiome of Oral Administration of Sesterterpene MHO7 Derived from a Marine Fungus” (Marine Drugs, 2019)", "key": {"[1]": {"assay": "Tissue distribution after single oral dose", "format": "in vivo, mice", "settings": "for concentration at 4 h / concentration at 8 h / concentration at 12 h / concentration at 20 h / concentration at 30 h / concentration at 1 h / Kp: KM, mouse; for Kp: female", "protocol": "The animals and treatment methods were the same as in the pharmacokinetic studies. Afterwards, the biological samples (n = 6 per group) were collected at 1, 4, 8, 12, 20, and 30 h, and the tissues including heart, liver, spleen, lung, kidney, stomach, intestine, brain, muscle (hind limb), fat (white adipose tissue ), reproductive organs (uterus, fallopian tube and ovary) stomach and its contents, and intestine and its contents, and the blood samples were simultaneously collected. All the tissues were washed with cold physiological saline (4 °C), excess fluid blotted, accurately weighed, and subjected to the processing as described in the sample preparation. QC samples and standard curve series solutions were prepared in the same way of blank gastrointestinal contents and livers, respectively. The concentrations of HQC, MQC, and LQC in mice tissues were 10, 1, and 0.1 μM·L^−1, respectively, and the concentrations of standard curve series solutions were 50, 25, 10, 5, 2.5, 1, 0.5, 0.25, 0.1, and 0.005 μM·L^−1 for high and low concentrations of standard curves."}, "[2]": {"assay": "Stability in simulated gastric fluid (SGF)", "format": "in vitro ADME", "settings": "for percentage concentration remaining in SGF: at 8 h", "protocol": "SGF was prepared with modifications according to Lee et al. (2012) by mixing 100 mL of distilled water with a pH value set to 2.0 with hydrochloric acid and 1 g pepsin solution (800–2000 U/mg of protein). SIF was produced according to USP specifications (Test Solutions, United States Pharmacopeia 35, NF 30, 2012). Monobasic potassium phosphate (0.68 g) was dissolved in 25 mL of water. Then, 7.7 mL of 0.2 M NaOH was added to adjust the pH to 6.8. To this, 1 g of pancreatin was added and shaken gently until dissolved and the volume adjusted to 100 mL with water. Pancreatin was added after adjusting the pH of the solution to 6.8 to avoid precipitation of the enzyme.\nAliquots (199 µL) of SGF and SIF were placed in 1.5 mL microcentrifuge tubes and incubated at 37 °C for 10 min in a water bath, respectively. Different concentrations of MHO7 (1 µL) were added to each of the above microcentrifuge tubes to start the reaction with being incubated at 37 °C at 250 rpm in a shaking water bath. The reaction was stopped by adding ice ACN (800 µL) to each tube at intervals of 0, 0.5, 1, 2, 4, 6, and 8 h. The samples were vortexed for 15 min and centrifuged at 4 °C and 15,000 rpm for 15 min. After centrifuging the supernatant layer was taken directly for LC-MS analysis. Each experiment was carried out in triplicate, and average values were plotted. QC samples were prepared in the same way of inactivating pepsin in SGF incubation system at the concentrations of 1, 0.1 and 0.01 μM·L^−1 for HQC, MQC and LQC, respectively."}, "[3]": {"settings": "lung, oral 500 mg·kg^−1, female mice, read-out: Concentration in Lung"}, "[4]": {"settings": "muscle (hind limb), oral 500 mg·kg^−1, female mice, read-out: Concentration in Muscle"}, "[5]": {"settings": "reproductive organs (uterus, fallopian tube and ovary), oral 500 mg·kg^−1, female mice, read-out: Concentration in Reproductive organs"}, "[6]": {"settings": "spleen, oral 500 mg·kg^−1, female mice, read-out: Concentration in Spleen"}}, "note": "Where two headings read alike, the source gives them in different places."}
{"smiles": "CC(C)=C/C=C/[C@H](C)[C@H]1CC[C@]2(C)C[C@@H]3C(C)=CC(=O)[C@H]3/C(C=O)=C\\C[C@@H]12", "note": "[MHO7, 6-epi-ophiobolin G]", "values": [{"measurement": "concentration at 4 h", "setting": "[1]; [3]", "result": "1060 ± 450", "unit": "ng/g"}, {"measurement": "concentration at 8 h", "setting": "[1]; [3]", "result": "820 ± 710", "unit": "ng/g"}, {"measurement": "concentration at 12 h", "setting": "[1]; [3]", "result": "2340 ± 1910", "unit": "ng/g"}, {"measurement": "concentration at 20 h", "setting": "[1]; [3]", "result": "160 ± 40", "unit": "ng/g"}, {"measurement": "concentration at 30 h", "setting": "[1]; [3]", "result": "80 ± 20", "unit": "ng/g"}, {"measurement": "concentration at 1 h", "setting": "[1]; [4]", "result": "310 ± 220", "unit": "ng/g"}, {"measurement": "concentration at 4 h", "setting": "[1]; [4]", "result": "970 ± 480", "unit": "ng/g"}, {"measurement": "concentration at 8 h", "setting": "[1]; [4]", "result": "640 ± 370", "unit": "ng/g"}, {"measurement": "concentration at 12 h", "setting": "[1]; [4]", "result": "1420 ± 800", "unit": "ng/g"}, {"measurement": "concentration at 20 h", "setting": "[1]; [4]", "result": "170 ± 100", "unit": "ng/g"}, {"measurement": "concentration at 30 h", "setting": "[1]; [4]", "result": "20 ± 3", "unit": "ng/g"}, {"measurement": "concentration at 1 h", "setting": "[1]; [5]", "result": "880 ± 680", "unit": "ng/g"}, {"measurement": "concentration at 4 h", "setting": "[1]; [5]", "result": "2290 ± 1800", "unit": "ng/g"}, {"measurement": "concentration at 8 h", "setting": "[1]; [5]", "result": "23900 ± 11300", "unit": "ng/g"}, {"measurement": "concentration at 12 h", "setting": "[1]; [5]", "result": "13700 ± 10300", "unit": "ng/g"}, {"measurement": "concentration at 20 h", "setting": "[1]; [5]", "result": "1460 ± 1230", "unit": "ng/g"}, {"measurement": "concentration at 30 h", "setting": "[1]; [5]", "result": "360 ± 460", "unit": "ng/g"}, {"measurement": "concentration at 1 h", "setting": "[1]; [6]", "result": "40 ± 30", "unit": "ng/g"}, {"measurement": "concentration at 4 h", "setting": "[1]; [6]", "result": "430 ± 200", "unit": "ng/g"}, {"measurement": "concentration at 8 h", "setting": "[1]; [6]", "result": "480 ± 500", "unit": "ng/g"}, {"measurement": "concentration at 12 h", "setting": "[1]; [6]", "result": "200 ± 140", "unit": "ng/g"}, {"measurement": "concentration at 20 h", "setting": "[1]; [6]", "result": "310 ± 20", "unit": "ng/g"}, {"measurement": "concentration at 30 h", "setting": "[1]; [6]", "result": "10 ± 4", "unit": "ng/g"}, {"measurement": "Kp", "setting": "[1]; brain, over 1-30 h, oral 500 mg·kg^−1, read-out: tissue/plasma concentration ratio range, brain", "result": "0.36 to 6.11"}, {"measurement": "Kp", "setting": "[1]; fat (white adipose tissue), over 1-30 h, oral 500 mg·kg^−1, read-out: tissue/plasma concentration ratio range, fat", "result": "2.33 to 14"}, {"measurement": "Kp", "setting": "[1]; heart / plasma, over 1-30 h, oral 500 mg·kg^−1, read-out: tissue/plasma concentration ratio range, heart", "result": "0.31 to 4.2"}, {"measurement": "Kp", "setting": "[1]; intestines, oral 500 mg·kg^−1, read-out: tissue/plasma concentration ratio, intestines", "result": "> 100"}, {"measurement": "Kp", "setting": "[1]; kidney, over 1-30 h, oral 500 mg·kg^−1, read-out: tissue/plasma concentration ratio range, kidney", "result": "0.68 to 17.2"}, {"measurement": "Kp", "setting": "[1]; liver, over 1-30 h, oral 500 mg·kg^−1, read-out: tissue/plasma concentration ratio range, liver", "result": "0.18 to 17.4"}, {"measurement": "Kp", "setting": "[1]; lung, over 1-30 h, oral 500 mg·kg^−1, read-out: tissue/plasma concentration ratio range, lung", "result": "0.72 to 6.84"}, {"measurement": "Kp", "setting": "[1]; muscle (hind limb), over 1-30 h, oral 500 mg·kg^−1, read-out: tissue/plasma concentration ratio range, muscle", "result": "0.99 to 5.54"}, {"measurement": "Kp", "setting": "[1]; reproductive organs (uterus, fallopian tube and ovary), over 1-30 h, oral 500 mg·kg^−1, read-out: tissue/plasma concentration ratio range, reproductive organs", "result": "6.05 to 30.4"}, {"measurement": "Kp", "setting": "[1]; spleen, over 1-30 h, oral 500 mg·kg^−1, read-out: tissue/plasma concentration ratio range, spleen", "result": "0.28 to 8.55"}, {"measurement": "Kp", "setting": "[1]; stomach, oral 500 mg·kg^−1, read-out: tissue/plasma concentration ratio, stomach", "result": "> 1000"}, {"measurement": "amount in the intestine and its contents, of the intake", "setting": "[1]; oral 500 mg·kg^−1, female mice", "result": "less than 5%"}, {"measurement": "amount in the stomach and its contents, of the intake", "setting": "[1]; oral 500 mg·kg^−1, female mice", "result": 16.79, "unit": "%"}, {"measurement": "concentration range in fat", "setting": "[1]; over 1-30 h, oral 500 mg·kg^−1", "result": "0.18–11.15"}, {"measurement": "concentration range in the brain", "setting": "[1]; over 1-30 h, oral 500 mg·kg^−1", "result": "0.01–0.95"}, {"measurement": "concentration range in the heart", "setting": "[1]; over 1-30 h, oral 500 mg·kg^−1", "result": "0.04–0.85"}, {"measurement": "concentration range in the kidney", "setting": "[1]; over 1-30 h, oral 500 mg·kg^−1", "result": "0.07–8.16"}, {"measurement": "concentration range in the liver", "setting": "[1]; over 1-30 h, oral 500 mg·kg^−1", "result": "0.01–3.01"}, {"measurement": "concentration range in the lung", "setting": "[1]; over 1-30 h, oral 500 mg·kg^−1", "result": "0.08–2.34"}, {"measurement": "concentration range in the muscle", "setting": "[1]; over 1-30 h, oral 500 mg·kg^−1", "result": "0.02–1.42"}, {"measurement": "concentration range in the reproductive organs", "setting": "[1]; over 1-30 h, oral 500 mg·kg^−1", "result": "0.36–23.90"}, {"measurement": "concentration range in the spleen", "setting": "[1]; over 1-30 h, oral 500 mg·kg^−1", "result": "0.01–0.48"}, {"measurement": "percentage concentration remaining in SGF", "setting": "[2]; MHO7 added at 0.05 mM·L^−1, 37 °C", "result": "76.19 ± 0.99", "unit": "%"}, {"measurement": "percentage concentration remaining in SGF", "setting": "[2]; initial addition 0.5 mM·L^−1, 37 °C", "result": "80.2 ± 3.15", "unit": "%"}, {"measurement": "stability in SGF", "setting": "[2]; under the concentration of 5 mM·L^−1", "result": "stable"}]}
